In US20250041463A1, “FLUORINE-18 LABELED COMPOSITIONS AND THEIR USE IN IMAGING OF BIOLOGICAL TISSUE” (CORNELL UNIVERSITY, priority 2018, published 2025) one finds IC50 data, which are given here for 1 compound.

This test deals with Nestin tv-a derived DIPG. Description: Cell viability reference control (dasatinib). It counts as cell-based. The note with it: four parameter logistic standard curve regression, R^2=0.972.

For the compound `Cc1nc(Nc2ncc(C(=O)Nc3c(C)cccc3Cl)s2)cc(N2CCN(CCO)CC2)n1` [dasatinib], the IC50 – broadly, the midpoint of a concentration-inhibition curve – stood at 19 ± 20 nM.
